ChEMBL document CHEMBL1141113, “High affinity electrophilic and photoactivatable covalent endocannabinoid probes for the CB1 receptor” (J Med Chem, 2005)
pKi: −log10 of the molar value.

What was measured:
Cannabinoid receptor 1 = Cannabinoid receptor 1 (Rattus norvegicus, UniProt P20272); test: Binding affinity towards rat brain cannabinoid receptor 1 in the presence of PMSF upon incubation for 15 min at 4 degree C in pH 7.4 using [3H]CP-55940
Cannabinoid receptor 2 = Cannabinoid receptor 2 (Mus musculus, UniProt P47936); test: Binding affinity towards mouse spleen cannabinoid receptor 2 in the presence of PMSF upon incubation for 15 min at 4 degree C in pH 7.4 using [3H]CP-55940; format: tissue-based
Cannabinoid receptor 2, sequence (P47936 whole entry): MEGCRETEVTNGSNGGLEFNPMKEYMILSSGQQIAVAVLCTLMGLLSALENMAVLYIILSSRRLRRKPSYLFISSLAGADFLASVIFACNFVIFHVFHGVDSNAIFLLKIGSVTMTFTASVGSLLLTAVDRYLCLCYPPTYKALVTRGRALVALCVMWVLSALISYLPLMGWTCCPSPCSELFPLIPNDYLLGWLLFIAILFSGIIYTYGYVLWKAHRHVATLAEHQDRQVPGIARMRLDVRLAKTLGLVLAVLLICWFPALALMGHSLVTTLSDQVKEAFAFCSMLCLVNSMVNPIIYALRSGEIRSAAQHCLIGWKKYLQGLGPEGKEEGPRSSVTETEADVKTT

Cannabinoid receptor 1, sequence (P20272 whole entry): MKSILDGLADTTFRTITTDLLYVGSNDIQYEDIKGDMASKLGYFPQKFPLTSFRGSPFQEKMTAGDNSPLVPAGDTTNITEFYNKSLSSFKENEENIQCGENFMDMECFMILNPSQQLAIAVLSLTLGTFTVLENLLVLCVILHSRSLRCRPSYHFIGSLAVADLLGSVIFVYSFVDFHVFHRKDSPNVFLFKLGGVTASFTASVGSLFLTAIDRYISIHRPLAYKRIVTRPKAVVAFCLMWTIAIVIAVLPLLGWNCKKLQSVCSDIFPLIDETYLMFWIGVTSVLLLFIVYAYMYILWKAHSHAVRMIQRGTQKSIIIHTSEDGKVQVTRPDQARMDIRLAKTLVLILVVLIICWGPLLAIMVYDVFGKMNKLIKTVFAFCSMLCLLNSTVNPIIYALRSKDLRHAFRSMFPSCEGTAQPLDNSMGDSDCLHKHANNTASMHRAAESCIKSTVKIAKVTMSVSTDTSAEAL

Row | Compound | pKi (Cannabinoid receptor 1) | pKi (Cannabinoid receptor 2)
1 | O=C(CCC/C=C\C/C=C\C/C=C\C/C=C\CCCCCN=C=S)NC1CC1 | 8.89 | 7.31
2 | CCCCC/C=C\C/C=C\C/C=C\C/C=C\CCCC(=O)NC1CC1 | 8.57 | 6.80
